This is an account of results in article PMC8041433 (Environmental Health Perspectives, 2021).

Where “and” joins values, the source holds several entries; their conditions need not be identical. Identical values can stand only once. Counter-ions that a name gives are not always drawn. Like-named read-outs stand apart in the source and are kept apart here.

Assay [1] addresses T1, recombinant human AChE (Homo sapiens, UniProt P22303). Briefly: biochemical. The following applies: for AC50: AC50 (uM). It is filed as biochemical.
In assay [2] the target is AChE in neural stem cells (Homo sapiens, UniProt P22303). Briefly: cell-based.
In assay [3] the target is T1, recombinant human AChE. Briefly: biochemical.
The target of a further assay is AChE in SH-SY5Y cells (Homo sapiens, UniProt P22303). The experiment in a line: cell-based.
The target in assay [4] is T1, recombinant human AChE. Briefly: biochemical. Conditions: for IC50: potency (IC50), Enzyme.
The target of assay [5] is AChE in neural stem cell spheroids (Homo sapiens, UniProt P22303). Briefly: cell-based. The following applies: for IC50: potency (IC50).
Assay [6] deals with AChE in SH-SY5Y spheroids (Homo sapiens, UniProt P22303). Briefly: cell-based. The following applies: potency (IC50).
Assay [7] addresses T1, recombinant human AChE. Briefly: biochemical. This is another data set of the same source.
The target of assay [8] is T1, recombinant human AChE.
The mark [9] stands for this setting: potency (IC50), SH-SY5Y cells monolayer.
[10] abbreviates: Neural stem cell spheroid (24 h).
The mark [11] stands for this setting: Neural stem cell spheroid (48 h).
The mark [12] stands for this setting: potency (IC50), Enzyme with microsomes.
For IR or R in this document: key: Reversible (R); Irreversible (IR); ND, not detected in enzyme-based AChE inhibition assay from current study.

AChE in neural stem cell spheroids, sequence (P22303 32-614): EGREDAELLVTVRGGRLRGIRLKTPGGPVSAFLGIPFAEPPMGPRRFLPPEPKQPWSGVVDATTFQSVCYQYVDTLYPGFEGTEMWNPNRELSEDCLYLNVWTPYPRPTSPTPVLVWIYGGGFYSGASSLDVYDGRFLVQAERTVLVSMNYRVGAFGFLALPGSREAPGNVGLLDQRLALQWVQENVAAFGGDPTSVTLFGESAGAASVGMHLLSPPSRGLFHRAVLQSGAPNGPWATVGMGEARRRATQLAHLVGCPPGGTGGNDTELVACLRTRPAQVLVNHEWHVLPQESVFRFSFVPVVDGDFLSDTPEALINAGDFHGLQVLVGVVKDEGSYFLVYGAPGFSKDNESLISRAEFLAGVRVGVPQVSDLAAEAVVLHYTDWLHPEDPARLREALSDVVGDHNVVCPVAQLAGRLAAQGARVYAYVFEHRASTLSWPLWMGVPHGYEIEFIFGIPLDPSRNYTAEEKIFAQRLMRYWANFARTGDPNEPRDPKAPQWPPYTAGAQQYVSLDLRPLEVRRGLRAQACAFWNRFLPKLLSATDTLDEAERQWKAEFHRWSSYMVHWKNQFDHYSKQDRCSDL
AChE in SH-SY5Y spheroids, sequence (P22303 32-614): as above
T1 sequence (P22303 32-614): as above
AChE in neural stem cells, sequence (P22303 32-614): as above
AChE in SH-SY5Y cells, sequence (P22303 32-614): as above

In the case of `CN1C[C@H](CNC(=O)OCc2ccccc2)C[C@@H]2c3cccc4c3c(cn4C)C[C@H]21` [Metergoline, reference compound], the AC50 at recombinant human AChE [1] is 21.7 µM and 12.2 µM (3×) and 13.7 µM and 27.3 µM and 9.68 µM (2×) and 10.9 µM. Also, the IC50 in [2] was 13.2 ± 0.85 µM; on recombinant human AChE [3] it was 20.9 ± 1.36 µM; against AChE in SH-SY5Y cells (IC50 (uM)), 3.47 µM and 5.5 µM; at AChE in SH-SY5Y cells (setting [9]), 4.85 µM; at recombinant human AChE [4], 5.46 ± 1.98 µM; in assay [5] (setting [10]), 5.79 ± 1.63 µM. The IC50 is 5.8 ± 1.64 µM in assay [5] (setting [11]), 1.73 ± 0.75 µM in assay [6] (SH-SY5Y spheroids (24 h)), 4.17 ± 0.27 µM in [6] (SH-SY5Y spheroids (48 h)) and 21.7 µM on recombinant human AChE [7] (setting [12]).

As to `CN1CCCC(n2nc(Cc3ccc(Cl)cc3)c3ccccc3c2=O)CC1` (centres unmarked) [Azelastine (hydrochloride), reference compound], the “IR or R” value at recombinant human AChE [1] is “R”. The AC50 on recombinant human AChE [1] is 27.3 µM (3×) and 24.3 µM (2×) and 30.6 µM (2×). For the same compound, the IC50 came to 22.6 µM in assay [2]; 36.6 ± 10.3 µM at recombinant human AChE [3]; 20.9 µM on AChE in SH-SY5Y cells (setting [9]); 25.4 µM on recombinant human AChE [4]; 4.45 µM in assay [5] (setting [11]); 13.8 µM in assay [6] (SH-SY5Y spheroids (24 h)). The IC50 in [6] (SH-SY5Y spheroids (48 h)) is 19.3 µM; at recombinant human AChE [7] (setting [12]), 27.4 µM. Further, the “potency (IC50), Neural stem cell spheroid (24 h)” value in assay [5] is “Inactive”.

As for `CCOP(=S)(OCC)Oc1cc(C)nc(C(C)C)n1` [Diazinon], the “reversibility of AChE inhibition (result in words)” value on recombinant human AChE [1] is reported as “irreversibility”. On recombinant human AChE [1], the AC50 is 6.85 µM and 30.6 µM and 10.9 µM and 24.3 µM. Moreover, the IC50 was 0.41 ± 0.11 µM in assay [2]; 11.3 ± 1.44 µM against AChE in SH-SY5Y cells (setting [9]); 19.4 ± 2.22 µM on recombinant human AChE [4]; 0.04 ± 0.01 µM in assay [5] (setting [10]); 0.09 ± 0.02 µM in [5] (setting [11]); 19 ± 11.8 µM in [6] (SH-SY5Y spheroids (24 h)). In addition, the IC50 in [6] (SH-SY5Y spheroids (48 h)) is 20.1 ± 1.36 µM; at recombinant human AChE [7] (setting [12]), 22.6 ± 1.52 µM. In addition, the “potency (IC50), Enzyme-based assay with heat-inactivated microsomes” value on recombinant human AChE [3] was “Inactive”. The “CC-v2 (curve classes)” value on AChE in SH-SY5Y cells is 4 and -2.1 and -1.1.

For the compound `CCOP(=S)(OCC)Oc1ccc2c(C)c(Cl)c(=O)oc2c1` [Coumaphos], the AC50 at recombinant human AChE [1] is 24.3 µM and 27.3 µM. Also, the IC50 in [2] is 22.6 µM; against AChE in SH-SY5Y cells (IC50 (uM)), 12.6 µM and 22.7 µM and 22.4 µM and 28.6 µM and 17.8 µM and 12.8 µM; in assay [5] (setting [10]), 21.1 µM; in assay [5] (setting [11]), 21.4 µM; in [6] (SH-SY5Y spheroids (24 h)), 27.1 µM; in assay [6] (SH-SY5Y spheroids (48 h)) it was 20.6 µM. In addition, on recombinant human AChE [7] (setting [12]), the IC50 came out at 5.51 µM. Also, at recombinant human AChE [3], the “potency (IC50), Enzyme-based assay with heat-inactivated microsomes” value is given as “Inactive”. Moreover, the “CC-v2 (curve classes)” value on AChE in SH-SY5Y cells is 4 and -1.1 and -2.1; on recombinant human AChE [4], 4 and -2.2 and -2.1. Also, on AChE in SH-SY5Y cells, the “potency (IC50), SH-SY5Y cells monolayer” value is listed as “Inactive”. Moreover, the “AChE inhibition (result in words)” value on recombinant human AChE [4] was “did not show effects”. Moreover, the “potency (IC50), Enzyme” value on recombinant human AChE [4] is “Inactive”.

Turning to `CCOP(=S)(OCC)Oc1cnc2ccccc2n1` [Quinalphos], the AC50 at recombinant human AChE [1] (activity_60) is 49.8 µM and 62.7 µM. Further, the IC50 in [2] was 7.48 µM; at recombinant human AChE [3] it was 36.8 ± 4.7 µM; against AChE in SH-SY5Y cells (IC50 (uM)), 35.6 µM; against AChE in SH-SY5Y cells (setting [9]), 46.4 µM; on recombinant human AChE [4], 55.9 µM; in assay [5] (setting [10]), 1.64 µM. The IC50 in [5] (setting [11]) worked out at 2.94 µM; in assay [6] (SH-SY5Y spheroids (24 h)) it was 29.4 µM; in [6] (SH-SY5Y spheroids (48 h)) it was 46.2 µM; on recombinant human AChE [7] (setting [12]), 1.77 µM. The “CC-v2 (curve classes)” value on AChE in SH-SY5Y cells is -2.1 and 4.

Regarding `COP(N)(=S)Oc1ccccc1C(=O)OC(C)C` (centres unmarked) [Isocarbophos], the IC50 in assay [2] worked out at 27.8 µM; on recombinant human AChE [3], 55.9 µM; against AChE in SH-SY5Y cells (IC50 (uM)), 89.4 µM; against AChE in SH-SY5Y cells (setting [9]), 54.3 ± 9.25 µM; in [5] (setting [10]) it was 29.9 µM; in assay [5] (setting [11]) it was 23.1 µM. Moreover, the IC50 in assay [6] (SH-SY5Y spheroids (48 h)) came to 41.5 µM; on recombinant human AChE [7] (IC50 (uM)), 2.83 µM; on recombinant human AChE [7] (setting [12]), 8.21 µM. In addition, the “AChE inhibition (result in words)” value on recombinant human AChE [4] is given as “did not show effects”. The “CC-v2 (curve classes)” value was 4 at recombinant human AChE [4] and -1.1 on recombinant human AChE [8]. Also, the Efficacy at recombinant human AChE [4] is reported as 0; on recombinant human AChE [8], -89.537.
